Source: patent US11339120B2, “Phenyl derivatives as cannabinoid receptor 2 agonists” (priority 2015, dated 2022)
pEC50: −log10 of the molar value. Read-outs that look alike come from different tables or passages of the source.

Assays:
human CB2 receptors = biological target: T1, human CB2 receptors (Homo sapiens, UniProt P34972); assay: functional cAMP assay, CHO cells expressing human CB2; assay type: cell-based
T1 construct: expressed in transfected cells; host or cells: CHO cells
Protocol: (§1) CHO cells expressing human CB1 or CB2 receptors are seeded 17-24 hours prior to the experiment 50.000 cells per well in a black 96 well plate with flat clear bottom (Corning Costar #3904) in DMEM (Invitrogen No. 31331), 1×HT supplement, with 10% fetal calf serum and incubated at 5% CO2 and 37° C. in a humidified incubator. The growth medium was exchanged with Krebs Ringer Bicarbonate buffer with 1 mM IBMX and incubated at 30° C. for 30 min. Compounds were added to a final assay volume of 100 μl and incubated for 30 min at 30° C. Using the cAMP-Nano-TRF detection kit the assay (Roche Diagnostics) was stopped by the addition of 50 μl lysis reagent (Tris, NaCl, 1.5% Triton X100, 2.5% NP40, 10% NaN3) and 50 μl detection solutions (20 μM mAb Alexa700-cAMP 1:1, and 48 μM Ruthenium-2-AHA-cAMP) and shaken for 2 h at room temperature. The time-resolved energy transfer is measured by a TRF reader (Evotec Technologies GmbH), equipped with a ND:YAG laser as excitation source. The plate is measured twice with the excitation at 355 nm and at the emission with a delay of 100 ns and a gate of 100 ns, total exposure time 10 s at 730 (bandwidth 30 nm) or 645 nm (bandwidth 75 nm), respectively. The FRET signal is calculated as follows: FRET=T730-Alexa730-P(T645-B645) with P=Ru730-B730/Ru645-B645, where T730 is the test well measured at 730 nM, T645 is the test well measured at 645 nm, B730 and B645 are the buffer controls at 730 nm and 645 nm, respectively. cAMP content is determined from the function of a standard curve spanning from 10 μM to 0.13 nM cAMP.
(§2) EC50 values were determined using Activity Base analysis (ID Business Solution, Limited). The EC50 values for a wide range of cannabinoid agonists generated from this assay were in agreement with the values published in the scientific literature.

human CB1 receptors = biological target: T2, human CB1 receptors (Homo sapiens, UniProt P21554); assay: functional cAMP assay, CHO cells expressing human CB1; assay type: cell-based
T2 construct: expressed in transfected cells; host or cells: CHO cells
T2 sequence (P21554 whole entry): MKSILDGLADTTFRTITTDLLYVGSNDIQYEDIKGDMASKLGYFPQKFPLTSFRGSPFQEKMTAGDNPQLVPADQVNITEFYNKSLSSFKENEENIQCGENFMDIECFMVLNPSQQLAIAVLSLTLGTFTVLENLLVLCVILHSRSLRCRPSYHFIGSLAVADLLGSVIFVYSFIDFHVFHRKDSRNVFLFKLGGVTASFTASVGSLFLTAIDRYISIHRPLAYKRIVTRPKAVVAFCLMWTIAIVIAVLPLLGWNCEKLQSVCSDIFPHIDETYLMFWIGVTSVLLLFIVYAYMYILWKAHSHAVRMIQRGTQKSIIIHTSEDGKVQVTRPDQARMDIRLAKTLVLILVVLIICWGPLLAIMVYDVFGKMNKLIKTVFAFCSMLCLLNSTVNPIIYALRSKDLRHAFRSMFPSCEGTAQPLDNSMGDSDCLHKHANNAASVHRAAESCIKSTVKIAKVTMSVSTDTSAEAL
Protocol: as §1, §2

T1 sequence (P34972 whole entry): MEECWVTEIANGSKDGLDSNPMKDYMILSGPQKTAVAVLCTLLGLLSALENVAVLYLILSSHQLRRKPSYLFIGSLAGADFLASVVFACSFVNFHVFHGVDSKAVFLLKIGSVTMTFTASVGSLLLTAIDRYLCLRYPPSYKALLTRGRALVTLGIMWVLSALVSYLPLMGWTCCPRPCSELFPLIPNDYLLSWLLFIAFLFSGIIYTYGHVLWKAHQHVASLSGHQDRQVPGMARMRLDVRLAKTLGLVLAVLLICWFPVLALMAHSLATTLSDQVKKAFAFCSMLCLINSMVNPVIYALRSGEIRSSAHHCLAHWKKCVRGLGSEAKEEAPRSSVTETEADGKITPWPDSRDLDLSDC

SMILES	pEC50 (human CB2 receptors)	pEC50 (human CB1 receptors)	pEC50 (human CB2 receptors; functional cAMP assay, CHO cells expressing human CB2, read-out: Human CB2 EC50)
CC(C)C[C@@H](CO)NC(=O)c1ccc(N2CC(F)(F)C2)c(OCC2CC2)c1 [Example 13, 3-(Cyclopropylmethoxy)-4-(3,3-difluoroazetidin-1-yl)-N-[(2S)-1-hydroxy-4-methylpentan-2-yl]benzamide]	7.66	< 5.00	–
NC(=O)C1CC2(CC2)CN1C(=O)c1ccc(C2CC2)c(OCC2CC2)c1 (centres unmarked) [Example 22, 5-[4-Cyclopropyl-3-(cyclopropylmethoxy)benzoyl]-5-azaspiro[2.4]heptane-6-carboxamide]	7.55	< 5.00	–
Cc1nc([C@](C)(CC2CC2)NC(=O)c2ccc(C3CC3)c(OCC(F)F)c2)no1 [Example 32, (+)-4-Cyclopropyl-N-[1-cyclopropyl-2-(5-methyl-1,2,4-oxadiazol-3-yl)propan-2-yl]-3-(2,2-difluoroethoxy)benzamide]	8.00	< 5.00	–
CC(C)Oc1cc(C(=O)N[C@](C)(CC(N)=O)C2CC2)ccc1C1CC1 [Example 44, N-[(2R)-4-Amino-2-cyclopropyl-4-oxobutan-2-yl]-4-cyclopropyl-3-[(propan-2-yl)oxy]benzamide]	8.54	5.96	–
CNC(=O)[C@@H](NC(=O)c1ccc(C2CC2)c(OCC(F)(F)F)c1)C(C)(C)C [Example 41, 4-Cyclopropyl-N-[(2S)-3,3-dimethyl-1-(methylamino)-1-oxobutan-2-yl]-3-(2,2,2-trifluoroethoxy)benzamide]	8.00	6.23	–
CNC(=O)[C@H](CC(C)C)NC(=O)c1ccc(N2CC(F)(F)C2)c(OCC2CC2)c1 [Example 12, N^2-[3-(cyclopropylmethoxy)-4-(3,3-difluoroazetidin-1-yl)benzoyl]-N-methyl-L-leucinamide]	7.18	< 5.00	–
Cc1nc([C@@](C)(CC2CC2)NC(=O)c2ccc(C3CC3)c(OCC(F)(F)F)c2)no1 [Example 25, (−)-4-Cyclopropyl-N-[1-cyclopropyl-2-(5-methyl-1,2,4-oxadiazol-3-yl)propan-2-yl]-3-(2,2,2-trifluoroethoxy)benzamide]	7.39	< 5.00	–
CNC(=O)[C@H](CC(C)C)NC(=O)c1ccc(C2CC2)c(OCC2CC2)c1 [Example 19, N^2-[4-cyclopropyl-3-(cyclopropylmethoxy)benzoyl]-N-methyl-L-leucinamide]	7.71	< 5.00	–
C[C@@](CC(N)=O)(NC(=O)c1ccc(C2CC2)c(OCCF)c1)C1CC1 [Example 54, N-[(2S)-4-Amino-2-cyclopropyl-4-oxobutan-2-yl]-4-cyclopropyl-3-(2-fluoroethoxy)benzamide]	6.64	< 5.00	–
Cc1nc([C@@](C)(CC2CC2)NC(=O)c2ccc(C3CC3)c(-c3ccc(F)nc3)c2)no1 [Example 50, 4-Cyclopropyl-N-[(2R)-1-cyclopropyl-2-(5-methyl-1,2,4-oxadiazol-3-yl)propan-2-yl]-3-(6-fluoropyridin-3-yl)benzamide]	7.27	< 5.00	–
Cc1nc(C(NC(=O)c2ccc(C3CC3)c(OC(C)C)c2)C2(C)COC2)no1 (centres unmarked) [Example 68, 4-Cyclopropyl-N-[(5-methyl-1,2,4-oxadiazol-3-yl)(3-methyloxetan-3-yl)methyl]-3-[(propan-2-yl)oxy]benzamide]	–	< 5.00	6.58
Cc1nc([C@@](C)(CC2CC2)NC(=O)c2ccc(C3CC3)c(N3CCC(F)(F)C3)c2)no1 [Example 63, 4-Cyclopropyl-N-[(2R)-1-cyclopropyl-2-(5-methyl-1,2,4-oxadiazol-3-yl)propan-2-yl]-3-(3,3-difluoropyrrolidin-1-yl)benzamide]	8.42	6.06	–
CNC(=O)[C@@H](NC(=O)c1ccc(C2CC2)c(N2CCC(F)(F)C2)c1)C(C)(C)C [Example 66, 4-Cyclopropyl-3-(3,3-difluoropyrrolidin-1-yl)-N-[(2S)-3,3-dimethyl-1-(methylamino)-1-oxobutan-2-yl]benzamide]	9.32	7.38	–
